Test results as given in US20240374552A1, “Compositions and Methods for Preventing or Reducing the Risk of Metabolic Syndrome” (priority 2021, published 2024).

Assay: Acute oral gavage toxicity
Assay type: in vivo

Compound: CC(C)(C)c1cc(C=C(C#N)C#N)cc(C(C)(C)C)c1O [tyrphostin AG17, Tyrphostin AG17]
- LD50 (C57BL/6, mouse, in vivo): 33.3 mg/kg
- Behavioral alterations (doses 1.75, 5.5 and 17.5 mg/kg): inhibition in locomotion and piloerection
- Lethal effect (doses of 1.75, 5.5 and 17.5 mg/kg): no lethal effect observed
- Mortality (doses of 28, 40 and 55.5 mg/kg): increase in mortality
